Literature values, collected in US20040158054A1, “Di-ribonucleotides as specific viral RNA-polymerase inhibitors for the treatment or prevention of viral infections” (priority 2003, published 2004).

What was measured:
[1] = test system: 6-mercaptopurine-resistant cancer cell lines
[2] = test system: neoplastic cells

For `O=P(O)(OC[C@H]1O[C@@H](n2cnc3c(=S)[nH]cnc32)[C@H](O)[C@@H]1O)OC[C@H]1O[C@@H](n2cnc3c(=S)nc[nH]c32)[C@H](O)[C@@H]1O` [bis(thioinosine)-5′,5′-phosphate], the “inhibition of 6-mercaptopurine-resistant cancer cell lines” value [1] is given as “inhibit”, the “fold more potent against neoplastic cells than 6-MP” value ([2]; relative to 6-MP) is given as 240 fold and the “fold more potent against neoplastic cells than 6-MP riboside” value ([2]; relative to 6-MP riboside) is given as 25 fold.
